Laboratory results published in patent US20180163250A1, “Screening Broths Comprising Esculatin Compounds for the Detection of Specific Microorganisms” (Neogen Corporation, priority 2016, published 2018).

Legend:
[1] = tested on: MRSA phosphatase activity; assay: Confirmatory enzymatic test for MRSA phosphatase activity in the MRSA screening broth (initial investigation); type: cell-based, staphylococcus aureus; settings: substrate and ferric ammonium citrate added at end of incubation, or substrate included before incubation
Description: MRSA detection broths based on the principle of mannitol and trehalose utilization and cefoxitin were designed to be a selective system for high throughput screening of clinical MRSA samples. The broths allow high volume screening of the majority of patient samples by a low cost method with confirmation of the few presumptive positive samples by rapid methods. The broths achieved good performance relative to Mannitol salts broth enrichment and/or direct plating (>98% sensitivity and >96 selectivity). In order to further enhance the selectivity of this broth system, the use of a confirmatory enzymatic test targeted at the MRSA phosphatase activity was investigated. […] Fluorogenic phosphatase substrate, although giving a confirming reaction, suffered from the disadvantage of nonspecific fluorescence in the broth probably due to compound stability, and also necessitated the use of non-auto fluorescent glass or plastic tubes. […]

[2] = tested on: methicillin resistant coagulase negative staphylococcus (clinical isolates); assay: CHE-phosphate in MRSA broth before and after FAC: coagulase negative staphylococci; type: cell-based; settings: for Broth color after addition of FAC: 5 minutes at ambient temperature after FAC; for Broth color before addition FAC: LAB588, 37° C. for 22 hours
Description: (§1) Scheme 2 above provides a pictorial representation of CHE-phosphate discriminating between methicillin resistant staphylococcus aureus and methicillin resistant coagulase negative Staphylococcus. The single phosphate group from CHE-phosphate is removed by the phosphatase activity of methicillin resistant staphylococcus aureus, but not by the coagulase negative staphylococcus, which lack this phosphatase activity. Addition of ferric ammonium citrate produces the dark, insoluble iron-3,4-cyclohexenoesculatin complex indicating the presence of methicillin resistant staphylococcus aureus. The dark complex is not formed between ferric ammonium citrate and CHE-phosphate, and therefore indicates the absence of phosphatase activity. Accordingly, a lack of a dark precipitate indicates the absence of methicillin resistant staphylococcus aureus.
(§2) A panel of MRSA strains and coagulase negative staphylococci (clinical isolates) were cultured and tested in MRSA broth with CHE-phosphate using the same methodology as Example 2 CHE-phosphate was Dissolved at 200 mg/ml in 50:50 mixture of dimethylformamide and water. LAB588 (MRSA broth, Lab M limited) pre-dispensed to 10 ml volumes was supplemented with 25 μL aliquots from the prepared stock solution. A 0.5 Macfarlane standard suspension of methicillin resistant staphylococcus aureus and coagulase negative staphylococci strains were prepared from 18-24 h cultures grown in tryptic soy broth (LAB004, Lab M Limited) at 37° C. These were diluted to an amount sufficient to inoculate each sample with 100-1000 cfu. Samples were then incubated at 37° C. for 22 hours and observed for growth and color change. 50 μL aliquots of a 250 mg/ml stock solution of Ferric ammonium citrate (FAC) was then added to each sample and allowed to incubate at ambient temperature for 5 minutes. The samples were then observed for blackening indicating phosphatase activity by the presence of free 3,4-cyclohexenoesculatin (Table 3).

[3] = tested on: methicillin resistant staphylococcus aureus; assay: CHE-phosphate in MRSA broth before and after FAC: MRSA strains; type: cell-based; settings: for Broth color after addition of FAC: 5 minutes at ambient temperature after FAC; for Broth color before addition FAC: LAB588, 37° C. for 22 hours
Description: as §1, §2

[4] = tested on: phosphatase activity of methicillin resistant staphylococcus aureus; assay: Blackening after addition of ferric ammonium citrate (free CHE, phosphatase activity) in MRSA broth; type: cell-based; settings: for blackening after the addition of ferric ammonium citrate indicating the presence of free 3,4-cyclohexenoesculatin: 5 minutes at ambient temperature after FAC
Procedure: (§3) CHE-phosphate, and 3,4-cyclohexenoesculatin diphosphate were dissolved at 200 mg/ml in a 50:50 mixture of dimethylformamide and water. 5-bromo-4-chloroindoxyl phosphate was dissolved at 200 mg/ml in a 50:50 mixture of ethanol and water. The mixtures of compounds were added individually to a MRSA broth (LAB588; Lab M limited) pre-dispensed to 10 ml volumes, after supplementation with cefoxitin selective agent, as 25 μL additions from the prepared stock solutions.
(§4) A 0.5 Macfarlane standard suspension of methicillin resistant staphylococcus aureus strains were prepared from 18-24 h cultures grown in tryptic soy broth (LAB004; Lab M Limited) at 37° C. These were diluted and added to the MRSA broth samples in an amount sufficient to inoculate each sample with 100-1000 colony forming units (cfu). Target concentration was achieved by diluting a culture to a target level and inoculating sets of tubes at different inoculum dilutions so as to achieve the target range. The actual quantity inoculated was confirmed by plating 50 μl of the dilution onto Tryptone soy agar (LAB011) and incubating the plates for 18-24 h at 37° C. and counting the resulting colonies. This information was used to determine which tubes had been inoculated within the target dosing range.
(§5) The broth is designed to selectively indicate a positive presence of MRSA by a yellow color, or a presumptive positive presence of MRSA by an orange color (Table 1). To the CHE-phosphate and 3,4-cyclohexenoesculatin diphosphate was added 50 μL of a 250/mg/ml stock solution of Ferric ammonium citrate and samples were allowed to incubate at ambient temperature for 5 minutes.

[5] = tested on: methicillin resistant staphylococcus aureus strains; assay: Growth and initial color change in MRSA screening broth (LAB588) containing the substrate; type: cell-based; settings: for Initial color change indicating the presence of MRSA: LAB588 broth with cefoxitin, 100-1000 cfu
Procedure: as §3, §4, §5

O=c1oc2cc(O)c(OP(=O)(O)O)cc2c2c1CCCC2 [CHE-phosphate, sodium 3,4-cyclohexenoesculatin-6-phosphate (sodium 3-hydroxy-6-oxo-7,8,9,10-tetrahydro-6H-benzo[c]chromen-2-yl phosphate)]
Blackening reaction in the MRSA screening broth [1]: readily observable blackening reaction | Broth color after addition of FAC ([2]; CNS 22): Orange | Broth color before addition FAC ([2]; CNS 22): Orange | Broth color after addition of FAC ([2]; CNS 28): yellow | Broth color before addition FAC ([2]; CNS 28): yellow | Broth color after addition of FAC ([2]; CNS 33): orange | Broth color before addition FAC ([2]; CNS 33): orange | Broth color after addition of FAC ([3]; MRSA 3): Black | Broth color before addition FAC ([3]; MRSA 3): Yellow | Broth color after addition of FAC ([3]; MRSA 15): Black | Broth color before addition FAC ([3]; MRSA 15): Yellow | Broth color after addition of FAC ([3]; MRSA 16A): Black | Broth color before addition FAC ([3]; MRSA 16A): Orange | Broth color after addition of FAC ([3]; MRSA 16B): Black | Broth color before addition FAC ([3]; MRSA 16B): Orange | Broth color after addition of FAC ([3]; MRSA 75): Black | Broth color before addition FAC ([3]; MRSA 75): Orange | Broth color after addition of FAC ([3]; S. aureus NCTC 12493): Black | Broth color before addition FAC ([3]; S. aureus NCTC 12493): Yellow | Specificity for the phosphatase enzyme of MRSA versus methicillin resistant coagulase negative staphylococci ([3]; summary of Table 3): specific for the phosphatase enzyme of MRSA | blackening after the addition of ferric ammonium citrate indicating the presence of free 3,4-cyclohexenoesculatin ([4]; MRSA 3): Blackening | blackening after the addition of ferric ammonium citrate indicating the presence of free 3,4-cyclohexenoesculatin ([4]; MRSA 15): Blackening | blackening after the addition of ferric ammonium citrate indicating the presence of free 3,4-cyclohexenoesculatin ([4]; MRSA 15A (clinical isolate)): Blackening | blackening after the addition of ferric ammonium citrate indicating the presence of free 3,4-cyclohexenoesculatin ([4]; MRSA 15B (clinical isolate)): Blackening | blackening after the addition of ferric ammonium citrate indicating the presence of free 3,4-cyclohexenoesculatin ([4]; MRSA 15 C (clinical isolate)): Blackening | blackening after the addition of ferric ammonium citrate indicating the presence of free 3,4-cyclohexenoesculatin ([4]; MRSA 16A (clinical isolate)): Blackening | blackening after the addition of ferric ammonium citrate indicating the presence of free 3,4-cyclohexenoesculatin ([4]; MRSA 16B (clinical isolate)): Blackening | blackening after the addition of ferric ammonium citrate indicating the presence of free 3,4-cyclohexenoesculatin ([4]; MRSA 16 C (clinical isolate)): Blackening | blackening after the addition of ferric ammonium citrate indicating the presence of free 3,4-cyclohexenoesculatin ([4]; S. aureus NCTC 12493): Blackening | Specificity of enzymatic phosphatase activity for the substrate ([4]; summary of Table 2): specific | Initial color change indicating the presence of MRSA ([5]; MRSA 3): Growth (yellow) | Initial color change indicating the presence of MRSA ([5]; MRSA 15): Growth (yellow) | Initial color change indicating the presence of MRSA ([5]; MRSA 15A (clinical isolate)): Growth (yellow) | Initial color change indicating the presence of MRSA ([5]; MRSA 15B (clinical isolate)): Growth (yellow) | Initial color change indicating the presence of MRSA ([5]; MRSA 15C (clinical isolate)): Growth (orange) | Initial color change indicating the presence of MRSA ([5]; MRSA 16A (clinical isolate)): Growth (orange) | Initial color change indicating the presence of MRSA ([5]; MRSA 16B (clinical isolate)): Growth (orange) | Initial color change indicating the presence of MRSA ([5]; MRSA 16C (clinical isolate)): Growth (orange) | Inhibition of the growth of MRSA ([5]; MRSA broth LAB588, summary of Table 1): not inhibitory | Initial color change indicating the presence of MRSA ([5]; S. aureus NCTC 12493): Growth (yellow)
